Measurements: patent US6011046A, “Quinone compound, its production and use as antioxidant” (Takeda Chemical Industries, Ltd., priority 1995, dated 2000)

What was measured:
Na+ channel site 2 = test system: Na+ channel site 2; parameters: species or system SD male rats; details: [3H]-batrachotoxin 2 nM, rat forebrain homogenate, 37° C., 45 minutes; read-out: IC50 (Na+ channel binding, site 2)
Na+ channel site 1 = type: binding, SD male rats; details: [3H]-saxitoxin 2 nM, rat forebrain homogenate, 37° C., 30 minutes
[1] = test system: lipoperoxide formed in the brain homogenate; test: Lipoperoxide formation inhibitory effect (thiobarbituric acid (TBA) method, brain homogenate); type: biochemical, Wistar male rats; details: rat cerebral cortex homogenate supernatant, 37° C., 30 minutes, pH 7.4, malondialdehyde at 532 nm
Experimental: The lipoperoxide formed in the brain homogenate was quantified by the thiobarbituric acid (TBA) method of Stocks et al. (Cli. Sci. Mol. Med. 47, 215 (1974)). The cerebral cortex was removed from Wistar male rats (10 weeks old), and homogenized in ice-cooled phosphate physiological saline buffer (40 mM KH2 PO4 /K2 HPO4, 0.142M NaCl, pH 7.4). The homogenate was centrifuged at 1,000×g for 10 minutes, and the supernatant of the homogenate was used for the experiment. A solution of the test compound in ethanol (10 μl) was added to the supernatant (1 ml), and the mixture was incubated at 37° C. for 30 minutes. The reaction was stopped by adding 35% perchloric acid solution (200 μl). The reaction mixture was centrifuged at 13,000× g for 10 minutes, and 1% thiobarbituric acid solution (250 μl) was added to the supernatant (1.0 ml). The mixture was heated at 100° C. for 15 minutes, and then the amount of malondialdehyde formed by decomposition of the lipoperoxide was determined by colorimetry (532 nm).

## CC1=C(C)C(=O)C(C[C@](C)(O)CN2CCC(c3ccccc3)CC2)=C(C)C1=O [compound (A), (S)-2-[2-Hydroxy-2-methyl-3-(4-phenylpiperidin-1-yl)propyl]-3,5,6-trimethyl-1,4-benzoquinone]
Na+ channel site 2
  IC50: 0.9 µM
Na+ channel site 1
  effect on site 1 of Na channels: no effect
[1]
  IC50: 3.5 ± 0.56 µM

## vitamin E [reference compound]
[1]
  IC50: 203 ± 43 µM
